Results published in US20090226500A1, “SUTURES AND ANTI-SCARRING AGENTS” (Angiotech Pharmaceuticals, Inc, priority 2006, published 2009).
Like-named read-outs stand apart in the source and are kept apart here. Blank lines part the entries; values can stand above or below the compound they belong to.

What was measured:
[1] = test system: MCP-1 production by THP-1 cells; assay: MCP-1 production by macrophages; assay type: cell-based, human; settings: read-out: IC50 MCP-1 production
Method: (§1) The human macrophage cell line, THP-1 was plated in a 12 well plate such that each well contains 1×10^6 cells in 2 ml of media containing 10% FCS. Opsonized zymosan was prepared by resuspending 20 mg of zymosan A in 2 ml of ddH2O and homogenizing until a uniform suspension was obtained. Homogenized zymosan was pelleted at 250 g and resuspended in 4 ml of human serum for a final concentration of 5 mg/ml and incubated in a 37° C. water bath for 20 minutes to enable opsonization. Geldanamycin was prepared in DMSO at a concentration of 10^−2 M and serially diluted 10-fold to give a range of stock concentrations (10^−8 M to 10^−2 M).
(§2) THP-1 cells were stimulated to produce MCP-1 by the addition of 1 mg/ml opsonized zymosan. Eldanamycin was added to THP-1 cells by directly adding DMSO stock solutions, prepared earlier, at a 1/1000 dilution, to each well. Each drug concentration was tested in triplicate wells. Plates were incubated at 37° C. for 24 hours.
After a 24-hour stimulation, supernatants were collected to quantify MCP-1 production. MCP-1 concentrations in the supernatants were determined by ELISA using recombinant human MCP-1 to obtain a standard curve. A 96-well MaxiSorb plate was coated with 100 μL of anti-human MCP-1 Capture Antibody diluted in Coating Buffer (0.1M sodium carbonate pH 9.5) overnight at 4° C. The dilution of Capture Antibody used was lot-specific and was determined empirically. Capture antibody was then aspirated and the plate washed 3 times with Wash Buffer (PBS, 0.05% TWEEN-20). Plates were blocked for 1 hour at room temperature with 200 μL/well of Assay Diluent (PBS, 10% FCS pH 7.0). After blocking, plates were washed 3 times with Wash Buffer. […] Sample supernatants and standards were assayed in triplicate and were incubated at room temperature for 2 hours after addition to the plate coated with Capture Antibody. The plates were washed 5 times and incubated with 100 μL of Working Detector (biotinylated anti-human MCP-1 detection antibody+avidin-HRP) for 1 hour at room temperature. Following this incubation, the plates were washed 7 times and 100 μL of Substrate Solution (tetramethylbenzidine, H2O2) was added to plates and incubated for 30 minutes at room temperature. […] Mean absorbance was determined from triplicate data readings and the mean background was subtracted. MCP-1 concentration values were obtained from the standard curve.

[2] = test system: TNFα production by THP-1 cells; assay: TNF-alpha production by macrophages; assay type: cell-based, human; settings: read-out: IC50 TNFα production
Method: as §1, with “12-well” for “12 well”, “opsonization.” for “opsonization. Geldanamycin was prepared in DMSO at a concentration of 10^−2 M and serially diluted 10-fold to give a range of stock concentrations (10^−8 M to 10^−2 M).”
THP-1 cells were stimulated to produce TNFα by the addition of 1 mg/ml opsonized zymosan. […] Each drug concentration was tested in triplicate wells. Plates were incubated at 37° C. for 24 hours.
After a 24-hour stimulation, supernatants were collected to quantify TNFα production. TNFα concentrations in the supernatants were determined by ELISA using recombinant human TNFα to obtain a standard curve A 96-well MaxiSorb plate was coated with 100 μL of anti-human TNFα Capture Antibody diluted in Coating Buffer (0.1M sodium carbonate pH 9 5) overnight at 4° C. The dilution of Capture Antibody used was lot-specific and was determined empirically. Capture antibody was then aspirated and the plate washed 3 times with Wash Buffer (PBS, 0.05% TWEEN-20) Plates were blocked for 1 hour at room temperature with 200 μL/well of Assay Diluent (PBS, 10% FCS pH 7.0). After blocking, plates were washed 3 times with Wash Buffer. […] Sample supernatants and standards were assayed in triplicate and were incubated at room temperature for 2 hours after addition to the plate coated with Capture Antibody. The plates were washed 5 times and incubated with 100 μL of Working Detector (biotinylated anti-human TNFα detection antibody+avidin-HRP) for 1 hour at room temperature. Following this incubation, the plates were washed 7 times and 100 μL of Substrate Solution (tetramethylbenzidine, H2O2) was added to plates and incubated for 30 minutes at room temperature. […] Mean absorbance was determined from triplicate data readings and the mean background was subtracted. TNFα concentration values were obtained from the standard curve.

[3] = test system: IL-8 production by THP-1 cells; assay: IL-8 production by macrophages; assay type: cell-based, human; settings: THP-1 cells stimulated with opsonized zymosan, 24 hours, read-out: IC50 IL-8 production
Method: as §1, with “g,” for “g and”, “mg/ml,” for “mg/ml”
as §2, with “IL-8” for “MCP-1”, “Geldanamycin” for “Eldanamycin”
After a 24-hour stimulation, supernatants were collected to quantify IL-8 production. IL-8 concentrations in the supernatants were determined by ELISA using recombinant human IL-8 to obtain a standard curve. A 96-well MAXISORB plate was coated with 100 μL of anti-human IL-8 Capture Antibody diluted in Coating Buffer (0.1M sodium carbonate pH 9.5) overnight at 4° C. The dilution of Capture Antibody used was lot-specific and was determined empirically. Capture antibody was then aspirated and the plate washed 3 times with Wash Buffer (PBS, 0.05% TWEEN-20). Plates were blocked for 1 hour at room temperature with 200 μL/well of Assay Diluent (PBS, 10% FCS pH 7.0). After blocking, plates were washed 3 times with Wash Buffer. Standards and sample dilutions were prepared as follows: (a) sample supernatants were diluted 1/100 and 1/1000; (b) recombinant human IL-8 was prepared at 200 pg/ml and serially diluted to yield as standard curve of 3.1 pg/ml to 200 pg/ml Sample supernatants and standards were assayed in triplicate and were incubated at room temperature for 2 hours after addition to the plate coated with Capture Antibody The plates were washed 5 times and incubated with 100 μL of Working Detector (biotinylated anti-human IL-8 detection antibody+avidin-HRP) for 1 hour at room temperature. Following this incubation, the plates were washed 7 times and 100 μL of Substrate Solution (Tetramethylbenzidine, H2O2) was added to plates and incubated for 30 minutes at room temperature. Stop Solution (2 NH2SO4) was then added to the wells and a yellow color reaction was read at 450 nm with A correction at 570 nm. Mean absorbance was determined from triplicate data readings and the mean background was subtracted. IL-8 concentration values were obtained from the standard curve. […] The IC50 values for the following additional compounds were determined using this assay: IC50 (nM): 17-AAG, 56; mycophenolic acid, 549; resveratrol, 507; rapamycin, 4; 41; SP600125, 344; halofuginone, 641; D-mannose-6-phosphate, 220; epirubicin hydrochloride, 654; topotemay, 257; mithramycin, 33; daunorubicin, 421; celastrol, 490; chromomycin A3, 36

Smooth muscle cells = assay: Proliferation of smooth muscle cells; assay type: cell-based; settings: read-out: IC50 proliferation of smooth muscle cells
Method: Smooth muscle cells at 70-90% confluency were trypsinized, replated at 600 cells/well in media in 96-well plates and allowed to attachment overnight. Paclitaxel was prepared in DMSO at a concentration of 10^−2 M and diluted 10-fold to give a range of stock concentrations (10^−8 M to 10^−2 M). […] Each drug concentration was tested in triplicate wells. Plates containing cells and paclitaxel were incubated at 37° C. for 72 hours.
(§3) To terminate the assay, the media was removed by gentle aspiration A 1/400 dilution of CYQUANT 400×GR dye indicator (Molecular Probes; Eugene, Oreg.) was added to 1× Cell Lysis buffer, and 200 μL of the mixture was added to the wells of the plate. Plates were incubated at room temperature, protected from light for 3-5 minutes.

human fibroblasts = assay: Cell proliferation of fibroblasts; assay type: cell-based; settings: Fibroblast, 72 hours, CYQUANT, read-out: IC50 cell proliferation of fibroblasts
Method: Fibroblasts at 70-90% confluency are trypsinized, replated at 600 cells/well in media in 96-well plates and allowed to attachment overnight. […] Each drug concentration is tested in triplicate wells. Plates containing fibroblasts and drug substance are incubated at 37° C. for 72 hours.
as §3, with “is” for “was”, “aspiration.” for “aspiration”, “400×GR™” for “400×GR”, “are” for “were”

[4] = THP-1 cells stimulated with opsonized zymosan, 24 hours
[5] = Homo sapiens, THP-1 cells stimulated with opsonized zymosan, 24 hours

Compound: C=C1/C(=C\C=C2/CCC[C@]3(C)[C@@H]([C@H](C)CCCC(C)(C)O)CC[C@@H]23)C[C@@H](O)C[C@@H]1O [1-α-25 dihydroxy vitamin D3]
IC50 [1, 4]: 1 nM

Compound: CC1(C)CN[Se]c2ccccc21 [BXT-51072]
IC50 [1, 4]: 683 nM

Compound: Cc1ccc(S(=O)(=O)/C=C/C#N)cc1 [Bay 11-7082]
IC50 [2, 4]: 810 nM

Compound: O=C[C@@H](O)[C@@H](O)[C@H](O)[C@H](O)COP(=O)(O)O [D-mannose-6-phosphate]
IC50 ([3]; Homo sapiens): 220 nM

Compound: Nc1ccn([C@@H]2O[C@H](CO)[C@@H](O)C2(F)F)c(=O)n1 [gemcitabine]
IC50 [1, 4]: 50 nM
IC50 (Smooth muscle cells; 72 hours, CYQUANT): 9 nM

Compound: COc1cc([C@@H]2c3cc4c(cc3[C@H](O)[C@H]3COC(=O)[C@H]23)OCO4)cc(OC)c1OC [podophyllotoxin]
IC50 ([2]; Homo sapiens, THP-1, 24 h): 75 nM
IC50 (human fibroblasts): 100 to 600 nM
IC50 ([1]; Homo sapiens, THP-1, 24 h): 28 nM
IC50 (Smooth muscle cells; 72 h): 21 nM

Compound: COc1ccc(C[C@H](N)C(=O)N[C@H]2[C@@H](O)[C@H](n3cnc4c(N(C)C)ncnc43)O[C@@H]2CO)cc1 [puromycin]
IC50 [1, 4]: 161 nM
IC50 (Smooth muscle cells; 72 hours, CYQUANT): 384 nM

Compound: CC[C@]1(O)C[C@@H]2CN(CCc3c([nH]c4ccccc34)[C@@](C(=O)OC)(c3cc4c(cc3OC)N(C)[C@H]3[C@@](O)(C(=O)OC)[C@H](OC(C)=O)[C@]5(CC)C=CCN6CC[C@]43[C@@H]65)C2)C1 [vinblastine]
IC50 [2, 4]: 65 nM
IC50 [1, 4]: 19 nM
IC50 (Smooth muscle cells; 72 hours, CYQUANT): 3 nM

Compound: CC[C@]1(O)C[C@H]2CN(CCc3c([nH]c4ccccc34)[C@@](C(=O)OC)(c3cc4c(cc3OC)N(C=O)[C@H]3[C@@](O)(C(=O)OC)[C@H](OC(C)=O)[C@]5(CC)C=CCN6CC[C@]43[C@@H]65)C2)C1 [vincristine]
IC50 [1, 4]: 16 nM
IC50 (Smooth muscle cells; 72 hours, CYQUANT): 9 nM

The next lines start with results.

IC50 [2, 4]: 742 nM
IC50 [1, 4]: 724 nM
Compound: CCCCC/C=C/C=C1/C(=O)C=C[C@@H]1C/C=C\CCCC(=O)O [15-deoxy prostaglandin J2, 15-Deoxy-D12,14-prostaglandin J2]

IC50 [3]: 56 nM
IC50 [1, 4]: 135 nM
Compound: C=CCNC1=C2C[C@@H](C)C[C@H](OC)[C@H](O)[C@@H](C)/C=C(\C)[C@H](OC(N)=O)[C@@H](OC)/C=C\C=C(/C)C(=O)NC(=CC1=O)C2=O [17-AAG, 17-allylaminogeldanamycin]
IC50 (Smooth muscle cells; 72 hours, CYQUANT): 47 nM

IC50 [1, 4]: 216 nM
Compound: O=C(O)CCCCN(CCc1ccccc1OCc1ccc(CCc2ccccc2)cc1)Cc1ccc(C(=O)O)cc1 [Bay 58-2667]

IC50 [2, 5]: 792 nM
IC50 [1, 5]: 217 nM
Compound: COc1c(C)c2c(c(O)c1C/C=C(\C)CCC(=O)OCCN1CCOCC1)C(=O)OC2 [Mycophenolate mofetil]
IC50 (human fibroblasts): 600 to 1200 nM
IC50 (Smooth muscle cells; 72 hours, CYQUANT): 463 nM

IC50 [2, 5]: 831 nM
Compound: Fc1ccc(-c2nc3n(c2-c2ccncc2)CCS3)cc1 [SKF 86002]

IC50 ([3]; Homo sapiens): 344 nM
Compound: Oc1c2ccccc2c2c3c(cccc13)N=N2 [SP600125]
IC50 (human fibroblasts): 1200 to 10000 nM

IC50 [2, 5]: 6 nM
IC50 [1, 5]: 0.011 nM
Compound: CN(C)CCCN1c2ccccc2Sc2ccc(Cl)cc21 [chlorpromazine]

IC50 [2, 5]: 14 nM
Compound: COC1=C2C[C@@H](C)C[C@H](OC)[C@H](O)[C@@H](C)/C=C(\C)[C@H](OC(N)=O)[C@@H](OC)/C=C\C=C(/C)C(=O)NC(=CC1=O)C2=O [geldanamycin]
IC50 (human fibroblasts): 0.1 to 10 nM
IC50 (Smooth muscle cells; 72 hours, CYQUANT): 5 nM

IC50 ([3]; Homo sapiens): 507 nM
Compound: Oc1ccc(C=Cc2cc(O)cc(O)c2)cc1 [resveratrol]

IC50 [2, 4]: 605 nM
IC50 [1, 4]: 69 nM
Compound: CCC1=C[C@@H]2CN(C1)Cc1c([nH]c3ccccc13)[C@@](C(=O)OC)(c1cc3c(cc1OC)N(C)[C@H]1[C@@](O)(C(=O)OC)[C@H](OC(C)=O)[C@]4(CC)C=CCN5CC[C@]31[C@@H]54)C2 [vinorelbine]
IC50 (Smooth muscle cells; 72 hours, CYQUANT): 15 nM
